These results are taken from EP1161410B1, “RETINOID ANTAGONISTS AND USE THEREOF” (Basilea Pharmaceutica AG, priority 1999, dated 2000).

One data set relates to TNF-α. Nature of the data set: TNF-α production by activated monocytes (SAC + IFN-γ). The format is cell-based, human. To be noted: SAC+IFN-γ alone 1840-2000 pg/ml.
Another data set concerns human naive T cells. The experiment in a line: Inhibition of differentiation of human naive T cells into T helper 2 (Th2) cells. It counts as cell-based. Also noted: dose or concentration left out as unconfirmed. To be noted: for IL-4 expressing cells, % gated cells: Th2 control 26.32; for IL-4 expressing cells, % Th2 cells: Th2 control = 100. The method, then: In vitro assay for inhibition of differentiation of human naive T cells into T helper 2 (Th2) cells by retinoid antagonists.
Naive T cells from cord blood were isolated and treated as described [Panina-Bordignon et al. J. Clin. Invest. 100. 1513-1519 (1997)]. Briefly, cord blood derived mononuclear cells were incubated with anti-CD45RA and anti-CD4 monoclonal antibodies. After a 20 minute incubation, cells were washed and incubated with goat antimouse Ig-coated magnetic beads. Positive cells were separated and seeded at 1 x 10^6 cells/ml in a 24 well plate, together with autologous adherent cells, PHA, and IL-4 in the presence or absence of Compound H or Compound B […] for 5 days. Cells were then washed and put back in culture in the presence of IL-2 (100 U/ml). After 10 days, the cells were collected and restimulated with PMA (50 ng/ml) and ionomycin (1 µg/ml) for 4 hours. Brefeldin A (10 µg/ml) was added for the last 2 hours. Then the cells were fixed with 4% paraformaldehyde and permeabilized with saponin. Fixed cells were stained with FITC-anti IFNγ and PE-anti-IL-4mAbs and subjected to cytofluorimetric analysis.

For data set [1], the system named is airway inflammatory cell accumulation. The experiment in a line: Murine model of allergen-induced airway inflammation: airway inflammatory cell accumulation. The format is in vivo, C57BL/6 mice. Conditions: for Cell Influx, Total leukocytes: vehicle 795000; for Cell Influx, Eosinophils: vehicle 335000; for Cell Influx, Macrophages: vehicle 443000. As for the experimental part: Murine model of allergen-induced airway inflammation and hyperresponsiveness.
C57BL/6 mice (8-9 weeks old) are actively sensitized to ovalbumin (OA) on day 0 and on day 14 by a intraperitoneal injection of 10 µg OA + 1 mg Al(OH)3 (gel suspension) in 0.2 ml sterile saline. On day 21, the mice were challenged with 5.0 % OA aerosol for 18 minutes. The aerosol is generated by a De Vilbiss Ultra-Neb 90 ultrasonic nebulizer, the outlet of which is connected to a small plexiglass chamber containing the animals. The mice are dosed with the RXR antagonist Compound B (10 and 30 mg/kg intraperitoneally) daily for three days, 48 hours, 24 hours, and immediately prior to OA challenge. Animals are used on […].
Airway Inflammatory Cell Accumulation: On day 24, three days after the challenge with OA aerosol, animals are anesthetized with urethane (2.4 g/kg) and tracheotomized with a 23 gauge catheter. Lungs are lavaged with aliquots (2 x 1 ml) of sterile Hank's balanced salt solution without Ca^++ and Mg^++. Lavage fluid is recovered after 30 sec by gentle aspiration and pooled for each animal. Samples then are centrifuged at 2000 rpm for 15 minutes at 5 °C. Red blood cells are lysed from the resulting pellet with 0.5 ml distilled water and the cells remaining in the pellet are reconstituted with 5 ml HBSS. Samples are centrifuged a second time at 2000 rpm for 15 minutes at 5 °C. The resulting pellet is suspended in 1 ml of HBSS. Total cell number is determined from an aliquot of the cell suspension using a hemocytometer. For cytological preparations, the cells are fixed on cytocentrifuged slides stained with a modified Wright's stain. Differential counts on at least 300 cells are made using standard morphological criteria to classify cells.

The nature of data set [2]: Clinical trial, topical treatment of precancerous lesions of the skin (multiple actinic keratoses). The format is in vivo, human. To be noted: cream 1 % twice daily. From the text: Efficacy of topical application of Compound B in the treatment of precancerous lesions of the skin (multiple actinic keratoses)
In a clinical trial, a cream containing 1 % of Compound B was applied on the lesions twice daily without occlusive dressing. […]

Where [3] appears, read: Patient I, both forearms, 4 months.
[4] abbreviates: Patient IV, face and back of both hands, 3 months.

Take `CCCCOc1c(\C(C)=C/C=C/C(C)=C/C(=O)O)cc(C(C)(C)C)cc1C(C)(C)C` [Compound B, (2E,4E,6Z)-7-(3,5-di-tert.butyl-2-butyloxyphenyl]-3-methyl-2,4,6-octatrienoic acid]: the TNF-α with TNF-α (antagonist 10 nM) stood at 1484 pg/mL; in the data set on TNF-α (antagonist 100 nM), 1812 pg/mL; in the data set with TNF-α (antagonist 1000 nM), 1560 pg/mL. For the same compound, the “IL-4 expressing cells, % gated cells” value with human naive T cells worked out at 8.5%. For the same compound, the “IL-4 expressing cells, % Th2 cells” value in the data set with human naive T cells amounted to 32%. Also, the “Percent of reduction, Eosinophils” value in data set [1] (10 mg/kg intraperitoneally) worked out at 48%; in data set [1] (30 mg/kg intraperitoneally), 73%. In addition, the “Percent of reduction, Macrophages” value amounted to 35% in data set [1] (10 mg/kg intraperitoneally) and 62% in data set [1] (30 mg/kg intraperitoneally). Also, the “Percent of reduction, Total leukocytes” value in data set [1] (10 mg/kg intraperitoneally) is reported as 39%; in data set [1] (30 mg/kg intraperitoneally) it was 66%. Moreover, the “Cell Influx, Total leukocytes” value is 488000 cells/ml in data set [1] (10 mg/kg intraperitoneally daily for three days) and 271000 cells/ml in data set [1] (30 mg/kg intraperitoneally daily for three days). In addition, the “Cell Influx, Eosinophils” value stood at 176000 cells/ml in data set [1] (10 mg/kg intraperitoneally) and 91000 cells/ml in data set [1] (30 mg/kg intraperitoneally). The “Cell Influx, Macrophages” value in data set [1] (10 mg/kg intraperitoneally) came out at 289000 cells/ml; in data set [1] (30 mg/kg intraperitoneally), 172000 cells/ml. Also, the “Adverse Events (particularly irritation of lesions and surrounding skin)” value is “none” in data set [2] (setting [3]); “none” in data set [2] (Patient II, face, 6 weeks); “none” in data set [2] (Patient III, face, 4 months); “none” in data set [2] (setting [4]); “none” in data set [2] (Patient V, face, 2 months). For the same compound, the Improvement entry in data set [2] (setting [3]) is “marked”; in data set [2] (Patient II, face, 6 weeks), “slight”; in data set [2] (Patient III, face, 4 months), “moderate”; in data set [2] (setting [4]) it was “moderate”; in data set [2] (Patient V, face, 2 months) it was “no”. The “Reduction in Size of Lesions” value in data set [2] (Patient I, m, 53 years, both forearms, 4 months) came to 50%; in data set [2] (Patient III (person two), face, 4 months), 30%; in data set [2] (Patient V, m, 74 years, face, 2 months) it was 0%.
In the case of `CCCCCCCOc1cc2c(cc1/C(C)=C/c1ccc(C(=O)O)cc1)C(C)(C)CCS2(=O)=O` [Compound H, p-[(E)-2-[3',4'-Dihydro-4',4'-dimethyl-7'-(beptyloxy)-2'H-1-benzothiopyran-6'-yl]propenyl]benzoic acid 1',1'-dioxide], the values for the TNF-α in the data set with TNF-α (antagonist 10 nM), in the data set on TNF-α (antagonist 100 nM) and with TNF-α (antagonist 1000 nM) were 1392 pg/mL, 1600 pg/mL and 1912 pg/mL, respectively. The “IL-4 expressing cells, % gated cells” value with human naive T cells came to 10.8%. Besides, the “IL-4 expressing cells, % Th2 cells” value in the data set on human naive T cells is 41%.
